One data set has as its system SF-539. Put plainly: cells. As to conditions: Homo sapiens, SF-539, 48 h.
Another data set relates to NCI-H322M. As to conditions: NCI-H322M (Non-Small cell lung cancer); 48 h.
A further data set has as its system SK-MEL-28. The following applies: SK-MEL-28 (Melanoma); 48 h.
Data set [1] deals with non-tumorogenic immortalized mammary 184b5 cells. Put plainly: Cell growth measurement.
For a further data set, the system named is OVCAR-5. As to conditions: 48 h.
The test system of a further data set is SR. Nature of the data set: cells. The following applies: Homo sapiens, 48 h.
The next data set has as its system TK-10. The following applies: TK-10 (Renal); 48 h.
The next data set relates to HS578T. As to conditions: HS578T (Breast); 48 h.
The subject of a further data set is HCT-116. The following applies: HCT-116 (Colon); 48 h.
A further data set relates to M14. As to conditions: M14 (Melanoma); 48 h.
A further data set deals with COLO205. Nature of the data set: cells. The following applies: Homo sapiens, COLO 205, 48 h.
In the next data set the test system is HOP-62. Nature of the data set: cells. The following applies: Homo sapiens, HOP-62, 48 h.
A further data set has as its system HT29. Put plainly: cells. As to conditions: Homo sapiens, HT-29, 48 h.
Another data set has as its system EKVX. Put plainly: cells. As to conditions: Homo sapiens, 48 h.
A further data set relates to NCI-H522. The following applies: NCI-H522 (Non-Small cell lung cancer); 48 h.
The subject of another data set is CAKI-1. Nature of the data set: cells. As to conditions: Homo sapiens, CAKI-1, 48 h.

SMILES strings stand for the structures.

The values that follow come from US20130165520A1, “Hybrid Molecule Having Mixed Retinoic Acid Receptor Agonism and Histone Deacetylase Inhibitory Properties” (priority 2010, published 2013).

In general, GI50 refers to the concentration giving 50% growth inhibition. Read a low GI50 as more potent growth inhibition. As a reminder, the TGI is the concentration at which net growth stops. A high value points to lower sensitivity of the cells. Regarding `CC1(C)CCC(C)(C)c2cc(-c3ccc4cc(C(=O)NO)ccc4c3)ccc21` [hybrid 3], the GI50 in the data set on SF-539 worked out at 0.699 µM; in the data set on SR it was 0.335 µM; with COLO205 it was 0.797 µM; in the data set with HOP-62, 0.616 µM; in the data set with HT29, 0.575 µM; in the data set with EKVX it was 0.686 µM. It took 0.302 µM to inhibit growth in the data set on CAKI-1 by half (GI50). The CC50 was determined as 30.9 µM in the data set with SF-539 (read-out: LC50); 7.64 µM in the data set on SR (read-out: LC50); 6.02 µM in the data set on COLO205 (read-out: LC50); 6.18 µM with HOP-62 (read-out: LC50); 7.6 µM in the data set with HT29 (read-out: LC50); 18.4 µM in the data set on EKVX (read-out: LC50). Further, the CC50 in the data set on CAKI-1 (read-out: LC50) stood at 4.31 µM. Also, the TGI in the data set with NCI-H322M came out at 3.5 µM; in the data set on SK-MEL-28, 5.5 µM; in the data set on OVCAR-5, 19.5 µM; in the data set with TK-10, 4.97 µM; in the data set on HS578T, 11.8 µM; in the data set on HCT-116, 1.5 µM. Moreover, the TGI in the data set on M14 worked out at 2.49 µM; with NCI-H522 it was 3.59 µM. In addition, the “effect on growth of non-tumorogenic cells” value in data set [1] is “only minimal effects”.
